Assay results published in patent US20100291151A1, “1-METHYLPYRAZOLE MODULATORS OF SUBSTANCE P, CALCITONIN GENE-RELATED PEPTIDE, ADRENERGIC RECEPTOR, AND/OR 5-HT RECEPTOR” (priority 2009, published 2010).

Tests used:
Type in all cases: in vitro ADME
Supersomes CYP3A4 = target: T1, Supersomes CYP3A4 (Homo sapiens, UniProt P08684); assay: Individual recombinant CYP isoform stability assay, CYP3A4; conditions: 100 pmol per mL CYP3A4, 5 microgram per mL compound, 37° C., 0-60 minutes
T1 construct: purchased
Experimental: (§1) In Vitro Individual Recombinant CYP Isoform Stability Assays
(§2) Individual recombinant CYP isoform stability assays were conducted with Supersomes™ CYP2C19, CYP3A4, CYP3A5, CYP2D6, CYP2C8, and CYP2C9. The CYP isoforms were individually taken up in a NADPH-generating system (4.4 mM NADPH, 51.2 mM glucose 6-phosphate, 12 units per mL glucose 6-phosphate dehydrogenase and 6.6 mM magnesium chloride) in 2% sodium bicarbonate. The final assay concentrations were 100 pmol per mL for the following isoforms: CYP3A4, CYP2C19, and CYP2D6; other CYP isoforms final assay concentrations were 150 pmol per mL, including: CYP1A2 and CYP2C9; and yet other CYP isoforms final assay concentrations were 200 pmol per mL, including: CYP3A5 and CYP2C8. Test compounds were prepared as solutions in 20% acetonitrile-water and added to the assay mixture (final assay concentration 5 microgram per mL) and incubated at 37° C. Final concentration of acetonitrile in the assay should be <1%. Aliquots (50 μL) were taken out at times 0, 15, 30, 45, and 60 minutes, and diluted with ice cold acetonitrile (200 μL) to stop the reactions. Samples were centrifuged at 12,000 RPM for 10 minutes to precipitate proteins. Supernatants were transferred to microcentrifuge tubes and stored for LC/MS/MS analysis of the degradation half-life of the test compounds. […]

Supersomes CYP3A5 = target: T2, Supersomes CYP3A5 (Homo sapiens, UniProt P20815); assay: Individual recombinant CYP isoform stability assay, CYP3A5; conditions: 200 pmol per mL CYP3A5, 5 microgram per mL compound, 37° C., 0-60 minutes
T2 construct: purchased
Experimental: as §1, §2

Supersomes CYP2C8 = target: T3, Supersomes CYP2C8 (Homo sapiens, UniProt P10632); assay: Individual recombinant CYP isoform stability assay, CYP2C8; conditions: 200 pmol per mL CYP2C8, 5 microgram per mL compound, 37° C., 0-60 minutes
T3 construct: purchased
T3 sequence (P10632 1-490): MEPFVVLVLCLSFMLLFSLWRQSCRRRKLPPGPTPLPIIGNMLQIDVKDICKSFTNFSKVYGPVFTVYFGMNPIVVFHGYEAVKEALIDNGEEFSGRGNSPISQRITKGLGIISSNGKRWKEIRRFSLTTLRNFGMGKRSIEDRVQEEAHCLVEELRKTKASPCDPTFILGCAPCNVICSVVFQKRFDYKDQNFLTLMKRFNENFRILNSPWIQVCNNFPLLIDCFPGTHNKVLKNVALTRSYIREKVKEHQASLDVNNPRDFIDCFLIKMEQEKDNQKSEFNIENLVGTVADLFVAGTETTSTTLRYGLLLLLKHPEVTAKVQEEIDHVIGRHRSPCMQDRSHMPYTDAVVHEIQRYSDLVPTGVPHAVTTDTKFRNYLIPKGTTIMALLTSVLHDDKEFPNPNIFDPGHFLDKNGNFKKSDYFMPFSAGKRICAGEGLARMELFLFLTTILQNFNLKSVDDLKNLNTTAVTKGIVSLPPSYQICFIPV
Experimental: as §1, §2

Supersomes CYP2C9 = target: T4, Supersomes CYP2C9 (Homo sapiens, UniProt P11712); assay: Individual recombinant CYP isoform stability assay, CYP2C9; conditions: 150 pmol per mL CYP2C9, 5 microgram per mL compound, 37° C., 0-60 minutes
T4 construct: purchased
Experimental: as §1, §2

T4 sequence (P11712 whole entry, canonical isoform): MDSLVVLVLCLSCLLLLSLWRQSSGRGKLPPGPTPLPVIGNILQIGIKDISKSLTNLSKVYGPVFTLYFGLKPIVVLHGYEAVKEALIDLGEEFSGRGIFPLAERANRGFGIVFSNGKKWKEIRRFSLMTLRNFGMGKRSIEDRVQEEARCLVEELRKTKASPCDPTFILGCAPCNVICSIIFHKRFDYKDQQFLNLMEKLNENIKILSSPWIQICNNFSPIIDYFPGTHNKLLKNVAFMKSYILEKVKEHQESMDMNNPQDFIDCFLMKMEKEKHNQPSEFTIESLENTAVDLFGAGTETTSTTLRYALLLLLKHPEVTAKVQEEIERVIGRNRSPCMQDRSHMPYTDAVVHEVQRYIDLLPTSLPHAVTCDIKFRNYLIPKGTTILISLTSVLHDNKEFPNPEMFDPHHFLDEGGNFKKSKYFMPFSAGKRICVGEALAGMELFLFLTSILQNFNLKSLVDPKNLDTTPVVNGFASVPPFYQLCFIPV
T2 sequence (P20815 whole entry, canonical isoform): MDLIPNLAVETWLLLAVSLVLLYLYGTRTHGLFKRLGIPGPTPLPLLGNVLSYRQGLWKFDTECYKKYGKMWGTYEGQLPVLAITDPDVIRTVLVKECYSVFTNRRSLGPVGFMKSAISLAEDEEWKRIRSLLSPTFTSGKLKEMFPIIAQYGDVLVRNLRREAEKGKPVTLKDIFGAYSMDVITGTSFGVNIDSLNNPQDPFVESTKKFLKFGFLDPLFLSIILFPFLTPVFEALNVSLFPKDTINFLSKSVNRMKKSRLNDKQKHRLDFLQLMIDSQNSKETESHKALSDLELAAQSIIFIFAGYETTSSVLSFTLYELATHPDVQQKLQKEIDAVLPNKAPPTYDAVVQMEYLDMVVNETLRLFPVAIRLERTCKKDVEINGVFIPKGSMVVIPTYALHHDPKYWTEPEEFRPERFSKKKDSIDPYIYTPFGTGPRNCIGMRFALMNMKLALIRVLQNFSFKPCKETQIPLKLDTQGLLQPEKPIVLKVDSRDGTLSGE
T1 sequence (P08684 whole entry, canonical isoform): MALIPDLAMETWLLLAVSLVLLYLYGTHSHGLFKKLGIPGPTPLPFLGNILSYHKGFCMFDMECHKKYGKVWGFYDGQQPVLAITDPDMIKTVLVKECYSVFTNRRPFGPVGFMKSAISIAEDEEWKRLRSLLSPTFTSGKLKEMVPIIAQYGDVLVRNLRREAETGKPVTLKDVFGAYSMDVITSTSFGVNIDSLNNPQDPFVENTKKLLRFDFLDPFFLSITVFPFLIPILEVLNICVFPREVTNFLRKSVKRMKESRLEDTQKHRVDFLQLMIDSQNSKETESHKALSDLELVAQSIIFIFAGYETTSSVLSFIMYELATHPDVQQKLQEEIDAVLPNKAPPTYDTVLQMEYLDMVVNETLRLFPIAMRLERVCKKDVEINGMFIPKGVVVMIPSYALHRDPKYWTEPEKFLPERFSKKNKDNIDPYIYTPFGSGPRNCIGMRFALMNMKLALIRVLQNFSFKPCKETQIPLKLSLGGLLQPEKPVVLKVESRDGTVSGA

metabolism by CYP3A4 (Supersomes CYP3A4): not metabolized | metabolism by CYP3A5 (Supersomes CYP3A5): not metabolized | metabolism by CYP2C8 (Supersomes CYP2C8): not metabolized | metabolism by CYP2C9 (Supersomes CYP2C9): not metabolized
Compound: CN(C)CCOC(c1ccccc1)c1ccnn1C (stereo not shown) [Cizolirtine, N,N-dimethyl-2-[(1-methyl-1H-pyrazol-5-yl)phenylmethoxy]ethanamine]
